From patent publication US10870647B2, “Imidazopyridine derivative, method for preparing same, and pharmaceutical composition containing same as active ingredient for preventing or treating cancer” (DAEGU-GYEONGBUK MEDICAL INNOVATION FOUNDATION, priority 2016, dated 2020)

Key:
Experiment in all cases: Kinase selectivity, scanMAX Kinase assay panel (DiscoverX), % control at 1 uM
Assay type in all cases: binding
[1] = target: T1, scanMAX Kinase assay panel (Homo sapiens, UniProt P10721, L576P); details: KIT (L576P); 1 uM; read-out: Percent Control (%)
T1 construct: purchased DiscoverX
T1 sequence (P10721 26-976 L576P): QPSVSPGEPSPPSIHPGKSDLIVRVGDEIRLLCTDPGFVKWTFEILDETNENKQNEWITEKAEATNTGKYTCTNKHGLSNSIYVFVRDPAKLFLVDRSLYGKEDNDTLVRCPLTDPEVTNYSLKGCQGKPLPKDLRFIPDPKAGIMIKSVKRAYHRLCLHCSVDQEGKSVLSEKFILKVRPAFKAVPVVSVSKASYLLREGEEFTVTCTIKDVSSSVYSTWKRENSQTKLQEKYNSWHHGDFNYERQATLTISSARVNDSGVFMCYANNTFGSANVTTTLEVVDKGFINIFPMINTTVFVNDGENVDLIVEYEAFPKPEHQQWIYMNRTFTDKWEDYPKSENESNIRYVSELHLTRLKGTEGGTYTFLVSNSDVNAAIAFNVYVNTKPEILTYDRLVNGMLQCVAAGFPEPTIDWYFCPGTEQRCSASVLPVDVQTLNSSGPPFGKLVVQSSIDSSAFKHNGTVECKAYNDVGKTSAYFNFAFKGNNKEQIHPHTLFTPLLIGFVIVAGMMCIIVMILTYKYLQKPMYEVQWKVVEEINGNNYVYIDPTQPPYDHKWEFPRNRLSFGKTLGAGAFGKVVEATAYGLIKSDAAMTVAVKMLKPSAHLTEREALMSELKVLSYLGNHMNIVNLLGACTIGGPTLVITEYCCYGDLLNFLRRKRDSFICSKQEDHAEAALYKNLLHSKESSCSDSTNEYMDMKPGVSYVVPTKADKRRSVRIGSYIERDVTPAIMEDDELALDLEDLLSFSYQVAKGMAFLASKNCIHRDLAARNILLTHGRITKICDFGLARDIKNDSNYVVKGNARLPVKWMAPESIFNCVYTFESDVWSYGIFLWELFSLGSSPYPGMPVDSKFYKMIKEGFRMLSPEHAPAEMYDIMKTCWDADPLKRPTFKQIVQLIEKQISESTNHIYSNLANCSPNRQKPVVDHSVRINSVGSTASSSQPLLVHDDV
How it was run: (§1)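 A single concentration of 1 uM, in DMSO, is applied across the kinase panel. Activity against an individual enzyme is assigned where % control is less than 35.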

[2] = target: T2, scanMAX Kinase assay panel (Homo sapiens, UniProt Q13882); details: BRK; 1 uM; read-out: Percent Control (%)
T2 construct: purchased DiscoverX
How it was run: as §1

[3] = target: T3, scanMAX Kinase assay panel (Homo sapiens, UniProt P42336); details: PIK3CA; 1 uM; read-out: Percent Control (%)
T3 construct: purchased DiscoverX
How it was run: as §1

[4] = target: T4, scanMAX Kinase assay panel (Homo sapiens, UniProt P22607, G697C); details: FGFR3 (G697C); 1 uM; read-out: Percent Control (%)
T4 construct: purchased DiscoverX
How it was run: as §1

[5] = target: T5, scanMAX Kinase assay panel (Homo sapiens, UniProt Q05397); details: FAK; 1 uM; read-out: Percent Control (%)
T5 construct: purchased DiscoverX
How it was run: as §1

[6] = target: T6, scanMAX Kinase assay panel (Homo sapiens, UniProt Q15569); details: TESK1; 1 uM; read-out: Percent Control (%)
T6 construct: purchased DiscoverX
T6 sequence (Q15569 whole entry): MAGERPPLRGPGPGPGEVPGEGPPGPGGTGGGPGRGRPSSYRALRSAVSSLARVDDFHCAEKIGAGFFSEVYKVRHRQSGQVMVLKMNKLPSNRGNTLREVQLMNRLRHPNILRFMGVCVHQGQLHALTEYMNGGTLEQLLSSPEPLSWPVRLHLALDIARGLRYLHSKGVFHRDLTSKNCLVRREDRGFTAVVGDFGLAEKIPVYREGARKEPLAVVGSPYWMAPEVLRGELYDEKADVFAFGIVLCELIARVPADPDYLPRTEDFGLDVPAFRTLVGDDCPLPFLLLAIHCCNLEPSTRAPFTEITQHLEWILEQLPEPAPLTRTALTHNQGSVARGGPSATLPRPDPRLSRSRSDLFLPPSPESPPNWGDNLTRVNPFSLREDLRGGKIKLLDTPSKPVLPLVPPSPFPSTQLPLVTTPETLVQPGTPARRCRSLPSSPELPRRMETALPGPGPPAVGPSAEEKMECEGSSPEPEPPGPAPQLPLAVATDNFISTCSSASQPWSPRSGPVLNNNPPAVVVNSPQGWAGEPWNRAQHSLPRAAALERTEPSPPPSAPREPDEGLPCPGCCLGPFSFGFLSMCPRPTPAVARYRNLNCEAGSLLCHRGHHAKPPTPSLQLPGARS
How it was run: as §1

[7] = target: T7, scanMAX Kinase assay panel (Homo sapiens, UniProt P78362); details: SRPK2; 1 uM; read-out: Percent Control (%)
T7 construct: purchased DiscoverX
T7 sequence (P78362 whole entry): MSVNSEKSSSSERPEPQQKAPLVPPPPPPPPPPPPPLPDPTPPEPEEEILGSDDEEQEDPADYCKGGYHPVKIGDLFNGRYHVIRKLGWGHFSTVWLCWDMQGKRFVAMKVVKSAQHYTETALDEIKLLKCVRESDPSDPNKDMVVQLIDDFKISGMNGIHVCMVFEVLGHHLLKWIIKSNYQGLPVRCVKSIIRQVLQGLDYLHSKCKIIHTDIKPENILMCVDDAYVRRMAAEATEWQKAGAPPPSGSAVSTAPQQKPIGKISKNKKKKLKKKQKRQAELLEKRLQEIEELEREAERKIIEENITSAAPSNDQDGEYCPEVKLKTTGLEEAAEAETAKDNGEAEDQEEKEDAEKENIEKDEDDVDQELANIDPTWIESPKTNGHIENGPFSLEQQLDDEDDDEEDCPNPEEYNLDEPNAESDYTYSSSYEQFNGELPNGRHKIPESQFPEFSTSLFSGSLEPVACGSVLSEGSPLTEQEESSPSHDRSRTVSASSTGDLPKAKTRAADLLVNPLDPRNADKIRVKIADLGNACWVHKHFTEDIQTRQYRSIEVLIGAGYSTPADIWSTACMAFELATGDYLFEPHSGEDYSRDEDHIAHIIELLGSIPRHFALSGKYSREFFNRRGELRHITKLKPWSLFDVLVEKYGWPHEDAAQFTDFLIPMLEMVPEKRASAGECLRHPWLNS
How it was run: as §1

[8] = target: T8, scanMAX Kinase assay panel (Homo sapiens, UniProt Q00526); details: CDK3; 1 uM; read-out: Percent Control (%)
T8 construct: purchased DiscoverX
T8 sequence (Q00526 whole entry): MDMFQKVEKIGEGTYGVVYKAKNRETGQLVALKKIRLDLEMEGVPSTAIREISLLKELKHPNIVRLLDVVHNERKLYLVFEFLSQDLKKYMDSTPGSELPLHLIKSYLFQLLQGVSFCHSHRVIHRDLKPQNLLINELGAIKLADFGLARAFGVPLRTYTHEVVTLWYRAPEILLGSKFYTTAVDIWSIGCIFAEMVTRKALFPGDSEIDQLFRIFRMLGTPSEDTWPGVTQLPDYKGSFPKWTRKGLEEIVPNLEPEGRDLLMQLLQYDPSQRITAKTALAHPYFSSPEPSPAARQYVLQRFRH
How it was run: as §1

[9] = target: T9, scanMAX Kinase assay panel (Homo sapiens, UniProt P19525); details: PRKR; 1 uM; read-out: Percent Control (%)
T9 construct: purchased DiscoverX
T9 sequence (P19525 whole entry): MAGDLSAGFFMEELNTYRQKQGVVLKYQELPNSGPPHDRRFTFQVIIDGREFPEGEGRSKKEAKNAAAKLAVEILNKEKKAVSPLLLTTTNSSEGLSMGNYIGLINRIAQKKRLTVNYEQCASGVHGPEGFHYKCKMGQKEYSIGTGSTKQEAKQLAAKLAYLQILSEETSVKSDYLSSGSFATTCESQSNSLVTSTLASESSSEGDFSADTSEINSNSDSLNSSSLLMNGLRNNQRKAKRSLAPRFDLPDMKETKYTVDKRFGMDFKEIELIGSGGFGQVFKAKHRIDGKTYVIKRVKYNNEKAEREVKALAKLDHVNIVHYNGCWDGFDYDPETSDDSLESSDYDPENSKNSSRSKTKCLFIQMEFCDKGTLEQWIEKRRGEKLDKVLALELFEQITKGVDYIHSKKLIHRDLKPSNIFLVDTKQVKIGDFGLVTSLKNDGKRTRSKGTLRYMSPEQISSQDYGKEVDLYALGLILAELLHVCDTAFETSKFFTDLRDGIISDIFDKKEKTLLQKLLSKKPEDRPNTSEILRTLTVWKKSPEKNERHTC
How it was run: as §1

[10] = target: T10, scanMAX Kinase assay panel (Homo sapiens, UniProt Q15759); details: p38-beta; 1 uM; read-out: Percent Control (%)
T10 construct: purchased DiscoverX
T10 sequence (Q15759 whole entry): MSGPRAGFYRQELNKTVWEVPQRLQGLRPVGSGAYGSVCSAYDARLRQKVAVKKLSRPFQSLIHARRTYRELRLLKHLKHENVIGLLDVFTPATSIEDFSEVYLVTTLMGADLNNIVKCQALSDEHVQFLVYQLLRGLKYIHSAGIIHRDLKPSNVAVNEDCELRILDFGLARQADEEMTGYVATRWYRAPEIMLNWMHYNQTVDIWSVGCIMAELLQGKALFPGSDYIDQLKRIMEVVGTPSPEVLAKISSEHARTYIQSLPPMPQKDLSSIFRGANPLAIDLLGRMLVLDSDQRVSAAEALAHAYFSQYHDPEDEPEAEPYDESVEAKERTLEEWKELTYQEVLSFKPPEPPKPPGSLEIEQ
How it was run: as §1

[11] = target: T11, scanMAX Kinase assay panel (Homo sapiens, UniProt P52333); details: JAK3 (JH1domain-catalytic); 1 uM; read-out: Percent Control (%)
T11 construct: purchased DiscoverX
T11 sequence (P52333 1-1124): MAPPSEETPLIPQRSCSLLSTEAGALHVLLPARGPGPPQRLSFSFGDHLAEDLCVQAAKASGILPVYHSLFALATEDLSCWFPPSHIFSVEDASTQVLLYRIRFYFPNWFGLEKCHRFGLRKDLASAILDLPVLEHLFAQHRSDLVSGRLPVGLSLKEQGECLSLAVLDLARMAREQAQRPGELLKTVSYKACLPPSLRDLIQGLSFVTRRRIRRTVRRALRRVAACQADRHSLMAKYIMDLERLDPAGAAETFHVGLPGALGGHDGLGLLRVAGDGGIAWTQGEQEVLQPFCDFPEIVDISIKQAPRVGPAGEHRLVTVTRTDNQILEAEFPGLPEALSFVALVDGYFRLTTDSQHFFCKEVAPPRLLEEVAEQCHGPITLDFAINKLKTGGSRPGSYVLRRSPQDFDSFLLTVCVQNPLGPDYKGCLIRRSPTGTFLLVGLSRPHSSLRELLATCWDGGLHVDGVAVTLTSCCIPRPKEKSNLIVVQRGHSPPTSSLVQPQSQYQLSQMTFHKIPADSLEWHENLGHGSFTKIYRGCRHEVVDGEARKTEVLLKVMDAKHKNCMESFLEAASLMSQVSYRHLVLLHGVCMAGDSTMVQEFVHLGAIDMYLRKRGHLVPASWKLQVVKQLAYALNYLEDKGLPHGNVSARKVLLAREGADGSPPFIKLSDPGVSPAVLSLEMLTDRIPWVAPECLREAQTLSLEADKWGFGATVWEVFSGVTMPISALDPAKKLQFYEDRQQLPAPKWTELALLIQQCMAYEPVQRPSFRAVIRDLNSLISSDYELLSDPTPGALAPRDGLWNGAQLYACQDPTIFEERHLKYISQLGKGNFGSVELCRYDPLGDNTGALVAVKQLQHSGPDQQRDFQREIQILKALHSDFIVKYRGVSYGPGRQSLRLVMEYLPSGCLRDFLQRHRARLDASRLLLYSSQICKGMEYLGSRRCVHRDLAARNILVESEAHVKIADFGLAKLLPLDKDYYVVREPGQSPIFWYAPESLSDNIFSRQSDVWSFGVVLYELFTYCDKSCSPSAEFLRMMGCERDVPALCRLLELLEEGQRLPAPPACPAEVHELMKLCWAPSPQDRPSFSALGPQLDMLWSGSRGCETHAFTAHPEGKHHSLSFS
How it was run: as §1

[12] = target: T12, scanMAX Kinase assay panel (Homo sapiens, UniProt P10721, V559D/V654A); details: KIT (V559D, V654A); 1 uM; read-out: Percent Control (%)
T12 construct: purchased DiscoverX
T12 sequence (P10721 26-976 V559D/V654A): as the sequence (P10721 26-976 L576P) above, with V534D, P551L, V629A counted along it
How it was run: as §1

[13] = target: T13, scanMAX Kinase assay panel (Homo sapiens, UniProt P10721, V559D); details: KIT (V559D); 1 uM; read-out: Percent Control (%)
T13 construct: purchased DiscoverX
T13 sequence (P10721 26-976 V559D): as the sequence (P10721 26-976 L576P) above, with V534D, P551L counted along it
How it was run: as §1

[14] = target: T14, scanMAX Kinase assay panel (Homo sapiens, UniProt Q9H2G2); details: SLK; 1 uM; read-out: Percent Control (%)
T14 construct: purchased DiscoverX
T14 sequence (Q9H2G2 whole entry): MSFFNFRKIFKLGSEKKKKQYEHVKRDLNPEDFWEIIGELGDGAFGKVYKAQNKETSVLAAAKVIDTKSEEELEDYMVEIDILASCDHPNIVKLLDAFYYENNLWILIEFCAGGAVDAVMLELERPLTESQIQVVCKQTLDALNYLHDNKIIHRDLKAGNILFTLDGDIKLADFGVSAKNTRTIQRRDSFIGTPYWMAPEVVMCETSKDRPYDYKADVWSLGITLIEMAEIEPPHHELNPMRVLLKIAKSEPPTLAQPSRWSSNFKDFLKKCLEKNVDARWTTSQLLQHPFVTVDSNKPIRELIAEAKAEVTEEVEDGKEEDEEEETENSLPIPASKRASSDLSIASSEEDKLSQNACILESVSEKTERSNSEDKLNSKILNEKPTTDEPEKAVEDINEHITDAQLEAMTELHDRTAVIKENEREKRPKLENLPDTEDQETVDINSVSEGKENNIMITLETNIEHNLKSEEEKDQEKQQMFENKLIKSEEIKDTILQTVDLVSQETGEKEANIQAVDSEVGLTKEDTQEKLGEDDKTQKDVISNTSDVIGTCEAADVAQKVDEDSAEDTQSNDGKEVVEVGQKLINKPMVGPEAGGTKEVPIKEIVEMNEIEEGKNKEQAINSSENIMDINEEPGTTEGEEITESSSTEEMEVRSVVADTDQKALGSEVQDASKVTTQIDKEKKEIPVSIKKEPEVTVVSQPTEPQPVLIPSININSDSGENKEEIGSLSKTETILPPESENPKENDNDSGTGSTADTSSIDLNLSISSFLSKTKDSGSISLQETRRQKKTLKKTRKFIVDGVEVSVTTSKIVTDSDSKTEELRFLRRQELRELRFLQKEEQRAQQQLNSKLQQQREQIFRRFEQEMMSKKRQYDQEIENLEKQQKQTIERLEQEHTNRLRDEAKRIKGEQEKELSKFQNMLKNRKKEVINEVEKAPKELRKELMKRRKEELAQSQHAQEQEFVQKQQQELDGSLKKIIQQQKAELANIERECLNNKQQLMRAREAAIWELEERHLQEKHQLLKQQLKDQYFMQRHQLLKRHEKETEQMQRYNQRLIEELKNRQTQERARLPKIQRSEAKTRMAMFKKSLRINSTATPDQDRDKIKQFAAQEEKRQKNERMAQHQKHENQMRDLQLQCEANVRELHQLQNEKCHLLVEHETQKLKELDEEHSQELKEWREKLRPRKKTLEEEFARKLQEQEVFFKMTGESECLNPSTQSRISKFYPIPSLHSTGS
How it was run: as §1

Q: For Cc1ccc(C(=O)Nc2ccc(CN3CCN(C)CC3)c(C(F)(F)F)c2)cc1C#Cc1cnc2c(Nc3cnn(C)c3)cccn12 [Example 1, 4-methyl-3-((8-((1-methyl-1H-pyrazol-4-yl)amino)imidazo[1,2-a]pyridin-3-yl)ethynyl)-N-(4-((4-methylpiperazin-1-yl)methyl)-3-(trifluoromethyl)phenyl)benzamide], which remaining binding at 1 µM [1] is on record?
A: Its remaining binding at 1 µM is 0%.

Q: And the remaining binding at 1 µM [2]?
A: The remaining binding at 1 µM was 23%.

Q: And the remaining binding at 1 µM [3]?
A: The remaining binding at 1 µM was 99%.

Q: What about the remaining binding at 1 µM [4] of the same molecule?
A: Its remaining binding at 1 µM is 3%.

Q: And the remaining binding at 1 µM [5]?
A: The remaining binding at 1 µM was 39%.

Q: And the remaining binding at 1 µM [6]?
A: The remaining binding at 1 µM was 26%.

Q: And the remaining binding at 1 µM [7]?
A: The remaining binding at 1 µM was 97%.

Q: And the remaining binding at 1 µM [8]?
A: The remaining binding at 1 µM was 62%.

Q: What about the remaining binding at 1 µM [9] of the same molecule?
A: The remaining binding at 1 µM was 80%.

Q: And the remaining binding at 1 µM [10]?
A: Its remaining binding at 1 µM is 0%.

Q: And the remaining binding at 1 µM [11]?
A: The remaining binding at 1 µM was 1%.

Q: What about the remaining binding at 1 µM [12] of the same molecule?
A: The remaining binding at 1 µM was 1%.

Q: And the remaining binding at 1 µM [13]?
A: Its remaining binding at 1 µM is 0%.

Q: And the remaining binding at 1 µM [14]?
A: Its remaining binding at 1 µM is 0%.

Q: For Cc1cn(-c2cc(NC(=O)c3ccc(C)c(C#Cc4cnc5c(Nc6cnn(C)c6)cccn45)c3)cc(C(F)(F)F)c2)cn1 [Example 12, 4-methyl-N-(3-(4-methyl-1H-imidazol-1-yl)-5-(trifluoromethyl)phenyl)-3-((8-((1-methyl-1H-pyrazol-4-yl)amino)imidazo[1,2-a]pyridin-3-yl)ethynyl)benzamide], which remaining binding at 1 µM [1] is on record?
A: The remaining binding at 1 µM was 17%.

Q: And the remaining binding at 1 µM [2]?
A: Its remaining binding at 1 µM is 68%.

Q: What about the remaining binding at 1 µM [3] of the same molecule?
A: The remaining binding at 1 µM was 100%.

Q: What about the remaining binding at 1 µM [4] of the same molecule?
A: The remaining binding at 1 µM was 34%.

Q: And the remaining binding at 1 µM [5]?
A: The remaining binding at 1 µM was 10%.

Q: What about the remaining binding at 1 µM [6] of the same molecule?
A: The remaining binding at 1 µM was 81%.

Q: And the remaining binding at 1 µM [7]?
A: Its remaining binding at 1 µM is 87%.

Q: What about the remaining binding at 1 µM [8] of the same molecule?
A: Its remaining binding at 1 µM is 89%.

Q: What about the remaining binding at 1 µM [9] of the same molecule?
A: Its remaining binding at 1 µM is 89%.

Q: And the remaining binding at 1 µM [10]?
A: The remaining binding at 1 µM was 6%.

Q: What about the remaining binding at 1 µM [11] of the same molecule?
A: The remaining binding at 1 µM was 19%.

Q: And the remaining binding at 1 µM [12]?
A: The remaining binding at 1 µM was 11%.

Q: What about the remaining binding at 1 µM [13] of the same molecule?
A: Its remaining binding at 1 µM is 1%.

Q: And the remaining binding at 1 µM [14]?
A: Its remaining binding at 1 µM is 5%.

Q: How did the remaining binding at 1 µM [1] turn out when Cc1ccc(NC(=O)C2(C(=O)Nc3ccc(F)cc3)CC2)cc1C#Cc1cnc2c(Nc3cnn(C(C)C)c3)cccn12 [Example 78] was run?
A: Its remaining binding at 1 µM is 0%.

Q: And the remaining binding at 1 µM [2]?
A: Its remaining binding at 1 µM is 99%.

Q: What about the remaining binding at 1 µM [3] of the same molecule?
A: The remaining binding at 1 µM was 100%.

Q: What about the remaining binding at 1 µM [4] of the same molecule?
A: The remaining binding at 1 µM was 96%.

Q: And the remaining binding at 1 µM [5]?
A: The remaining binding at 1 µM was 96%.

Q: And the remaining binding at 1 µM [6]?
A: Its remaining binding at 1 µM is 100%.

Q: What about the remaining binding at 1 µM [7] of the same molecule?
A: The remaining binding at 1 µM was 100%.

Q: What about the remaining binding at 1 µM [8] of the same molecule?
A: The remaining binding at 1 µM was 86%.

Q: And the remaining binding at 1 µM [9]?
A: The remaining binding at 1 µM was 100%.

Q: What about the remaining binding at 1 µM [10] of the same molecule?
A: The remaining binding at 1 µM was 88%.

Q: And the remaining binding at 1 µM [11]?
A: The remaining binding at 1 µM was 100%.

Q: What about the remaining binding at 1 µM [12] of the same molecule?
A: Its remaining binding at 1 µM is 10%.

Q: And the remaining binding at 1 µM [13]?
A: Its remaining binding at 1 µM is 0%.

Q: And the remaining binding at 1 µM [14]?
A: The remaining binding at 1 µM was 11%.
